Source: patent US20080063628A1, “METHODS TO PROMOTE CELL DIFFERENTIATION” (priority 2006, published 2008)

System: second amniotic fluid-derived cell line
Assay: Two sequential high dose trichostatin A treatments (24 h each), gene expression by RT-PCR (Example 8)
Assay type: cell-based, human
Conditions: for Gata1 gene expression / HNF-3 beta gene expression / Insulin gene expression / Pdx-1 gene expression / sox17 gene expression: 1.25 μM 0-24 h + 96-120 h
Experimental: Several cell lines obtained from different amniotic fluid specimens (see Example 14) and pancreas donors (see Example 13) were tested with similar results. Two lines at similar passage number but derived from different amniotic fluid specimens are shown in Table VIII-A and Table VIII-B for this example. One of these cell lines was also used in examples 2 and 4 above. In addition, this example also contains comparison data in Table VIII-C and Table VIII-D for a single pancreatic-derived stromal line grown to early and late passage number.
Amniotic fluid derived cells or pancreatic-derived stromal cells were seeded into 24-well tissue culture plates at a density of 5000/cm^2 and cultured in AMNIOMAX (Invitrogen) or DMEM with 10% FBS respectively under standard cell culture conditions until confluent. After the cells reached confluency, amniotic fluid derived cells were treated at time 0 hours with a dose of 1.25 μM trichostatin A, and pancreatic-derived stromal cells were treated with a dose of 5.0 μM trichostatin A solubilized in DMSO and medium. At time 24 hours, cell cultures underwent a complete medium change to remove all traces of trichostatin A. At time 96 hours, cell cultures were re-fed with fresh medium and received a second dose of trichostatin A at the same concentration as used previously. At time 120 hours, cell cultures again underwent a complete medium change and were cultured for an additional 24 hours or […] total incubation time.
Samples were taken daily for RT-PCR at the times indicated in Table VIII-A to D. The culture media was removed, and samples were rinsed in PBS then collected in RLT with β-mercaptoethanol (Qiagen). RNA was purified using the RNeasy Mini Kit (Qiagen) and RNA quantity and quality were determined using a spectrophotometer. cDNA was made using the iScript cDNA synthesis kit (BioRad).
Samples of 20 ng cDNA were used in each reaction to determine the expression levels of the following genes in amniotic fluid-derived cells: Gata1, HNF-3 beta, Pdx-1, insulin, and Sox17. Similarly, samples of 20 ng cDNA were used in each reaction to determine the expression level of the following genes in pancreatic-derived cells: glucagon, HNF-3 beta, insulin and Pdx-1. Real-Time PCR was performed on the Applied Biosystems 7500, and data was analyzed using the accompanying software according to the methods described in Example 15.
Real-time PCR amplifcation and quantitative analysis. Unless otherwise stated, all reagents were purchased from Applied Biosystems. Real-time PCR reactions were performed using the ABI PRISM™ 7500 Sequence Detection System. TAQMAN™ FAST UNIVERSAL PCR MASTER MIX™ (ABI, CA) was used with 20 ng of reverse transcribed RNA in a total reaction volume of 20 μl. Each cDNA sample was run in duplicate to allow correction of pipetting errors. Primers and FAM-labeled TAQMAN™ probes were used at concentrations of 200 nM. The level of expression for each target gene was normalized using the pre-developed Applied Biosystem's human glyceraldehyde-3-phosphate dehydrogenase (GAPDH) endogenous control kit. Primers and probes were designed using either ABI PRISM PRIMER EXPRESS™ software or a pre-developed ABI gene analysis kit. For each gene, either one of the primers or the probe were designed to be exon-boundary spanning. This eliminated the possibility of the primers/probe binding to any genomic DNA present. The primer and probe sets are listed as follows: Pdx-1 (Hs00426216), Insulin (Hs00355773), glucagon (Hs00174967), and FoxA2 (HNF 3-beta) (Hs00232764). The remaining primers were designed using the PRIMERS program (ABI, CA). After an initial 95° C. incubation for 20 sec, samples were cycled 40 times in two stages: a denaturation step at 95° C. for 3 sec, followed by an annealing/extension step at 60° C. for 30 sec. […]

[1] = 1.25 μM, following the second treatment

CC(/C=C/C(=O)NO)=C\[C@@H](C)C(=O)c1ccc(N(C)C)cc1 [trichostatin A]
Gata1 gene expression (24 hrs): + (detectable between 35 and 40 cycles by RT-PCR) | HNF-3 beta gene expression (24 hrs): +++ (detectable at less than 35 cycles by RT-PCR with SE less than 0.9) | Insulin gene expression (24 hrs): nd (not detectable at >40 cycles by RT-PCR) | Pdx-1 gene expression (24 hrs): +++ (detectable at less than 35 cycles by RT-PCR with SE less than 0.9) | sox17 gene expression (24 hrs): +++ (detectable at less than 35 cycles by RT-PCR with SE less than 0.9) | Gata1 gene expression (48 hrs): nd (not detectable at >40 cycles by RT-PCR) | HNF-3 beta gene expression (48 hrs): +++ (detectable at less than 35 cycles by RT-PCR with SE less than 0.9) | Insulin gene expression (48 hrs): nd (not detectable at >40 cycles by RT-PCR) | Pdx-1 gene expression (48 hrs): nd (not detectable at >40 cycles by RT-PCR) | sox17 gene expression (48 hrs): +++ (detectable at less than 35 cycles by RT-PCR with SE less than 0.9) | Gata1 gene expression (72 hrs): nd (not detectable at >40 cycles by RT-PCR) | HNF-3 beta gene expression (72 hrs): +++ (detectable at less than 35 cycles by RT-PCR with SE less than 0.9) | Insulin gene expression (72 hrs): + (detectable between 35 and 40 cycles by RT-PCR) | Pdx-1 gene expression (72 hrs): nd (not detectable at >40 cycles by RT-PCR) | sox17 gene expression (72 hrs): +++ (detectable at less than 35 cycles by RT-PCR with SE less than 0.9) | Gata1 gene expression (96 hrs): nd (not detectable at >40 cycles by RT-PCR) | HNF-3 beta gene expression (96 hrs): + (detectable between 35 and 40 cycles by RT-PCR) | Insulin gene expression (96 hrs): + (detectable between 35 and 40 cycles by RT-PCR) | Pdx-1 gene expression (96 hrs): nd (not detectable at >40 cycles by RT-PCR) | sox17 gene expression (96 hrs): +++ (detectable at less than 35 cycles by RT-PCR with SE less than 0.9) | Gata1 gene expression (120 hrs): + (detectable between 35 and 40 cycles by RT-PCR) | HNF-3 beta gene expression (120 hrs): +++ (detectable at less than 35 cycles by RT-PCR with SE less than 0.9) | Insulin gene expression (120 hrs): nd (not detectable at >40 cycles by RT-PCR) | Pdx-1 gene expression (120 hrs): +++ (detectable at less than 35 cycles by RT-PCR with SE less than 0.9) | sox17 gene expression (120 hrs): +++ (detectable at less than 35 cycles by RT-PCR with SE less than 0.9) | Gata1 gene expression (144 hrs): nd (not detectable at >40 cycles by RT-PCR) | HNF-3 beta gene expression (144 hrs): +++ (detectable at less than 35 cycles by RT-PCR with SE less than 0.9) | Insulin gene expression (144 hrs): nd (not detectable at >40 cycles by RT-PCR) | Pdx-1 gene expression (144 hrs): nd (not detectable at >40 cycles by RT-PCR) | sox17 gene expression (144 hrs): +++ (detectable at less than 35 cycles by RT-PCR with SE less than 0.9) | Pdx-1 RT-PCR detection cycle (1.25 μM, after the initial treatment): 33 cycles | Insulin RT-PCR detection cycle (1.25 μM, after trichostatin A was washed away): 36 cycles | HNF-3 beta RT-PCR detection cycle [1]: 32 cycles | Pdx-1 RT-PCR detection cycle [1]: 32 cycles | HNF-3 beta RT-PCR detection cycle (1.25 μM, initial treatment): 35 cycles | HNF-3 beta RT-PCR detection cycle (1.25 μM, prior to the second addition): 38 cycles
